From EPA's ToxRefDB 2

What was measured:
[1] = test system: rat; conditions: Subchronic oral toxicity in rodents, sprague dawley, Feed, dose end: 90 day
[2] = test system: rat; conditions: Prenatal developmental toxicity study, sprague dawley, Oral, Gavage/Intubation, dose end: 19 GD
[3] = test system: rat; conditions: Combined chronic toxicity/carcinogenicity; sprague dawley; Oral; Feed; dose end: 24 month; group: systemic; systemic / hematology / erythrocyte (rbc) count differential / erythrocyte (rbc) + systemic / hematology / hematocrit (hct) / hematocrit (…
[4] = test system: rat; conditions: Multigenerational reproductive toxicity study, sprague dawley, Oral, Feed, dose end: 2 generation
[5] = test system: mouse; conditions: Carcinogenicity; cd1; Oral; Feed; dose end: 18 month; group: systemic; systemic / pathology microscopic / bone marrow / hematopoietic cell proliferation + systemic / pathology microscopic / liver / hematopoietic…
[6] = test system: rat; conditions: Prenatal developmental toxicity study, sprague dawley, Oral, Gavage/Intubation, dose end: 19 GD; remark: listed apart in the source
[7] = test system: dog; conditions: Chronic toxicity; beagle; Oral; Feed; dose end: 60 week; group: systemic; systemic / clinical chemistry / thyroid stimulating hormone (thyrotropin) (tsh) / thyroid stimulating hormone (=thyrotropin) (tsh) + …
[8] = test system: mouse; conditions: Subchronic inhalation toxicity, cd1, Whole-Body, dose end: 13 week, group: systemic
[9] = test system: rat; conditions: Neurotoxicity screening battery; fischer; Inhalation; Whole-Body; dose end: 1 day; group: cannot be grouped; systemic / in life observation / clinical signs / abnormal gait + systemic / in life observation / clinical signs / body temperature + …
[10] = test system: rat; conditions: Developmental neurotoxicity study; sprague dawley; Oral; Gavage/Intubation; dose end: 68 PND; group: cannot be grouped; systemic / in life observation / mortality / mortality
[11] = test system: rabbit; conditions: Prenatal developmental toxicity study; new zealand white; Oral; Gavage/Intubation; dose end: 18 GD; group: maternal; systemic / in life observation / body weight / body weight + systemic / in life observation / body weight / body weight gain + systemic / in…
[12] = test system: rat; conditions: Carcinogenicity, fischer, Inhalation, Whole-Body, dose end: 104 week, group: systemic
[13] = test system: rat; conditions: Prenatal developmental toxicity study, Sprague-Dawley, Oral, Gavage/Intubation, dose end: 15 GD
[14] = test system: rat; conditions: Subchronic inhalation toxicity, fischer, Whole-Body, dose end: 13 week, group: systemic
[15] = group: cholinesterase, cholinesterase / cholinesterase / cholinesterase / plasma cholinesterase (che)
[16] = group: systemic, systemic / hematology / erythrocyte (rbc) count differential / erythrocyte (rbc) + systemic / hematology / hemoglobin (hgb) / hemoglobin (…
[17] = group: systemic, systemic / pathology microscopic / blood / focal cellular change
[18] = group: developmental, developmental / developmental malformation / bone / short
[19] = group: maternal, systemic / in life observation / body weight / body weight gain + systemic / in life observation / body weight / body weight + systemic / in…
[20] = group: offspring, systemic / in life observation / body weight / offspring (pup) weight + systemic / organ weight / liver / absolute + systemic / organ weight…
[21] = group: parental, systemic / organ weight / spleen / absolute + systemic / organ weight / spleen / relative to body weight + systemic / pathology microscopic…
[22] = group: developmental, developmental / developmental malformation / bone / bent + developmental / developmental malformation / bone / delayed ossification + …
[23] = group: maternal, systemic / in life observation / clinical signs / [other] + systemic / pathology gross / spleen / discolored + systemic / pathology gross / …
[24] = systemic / in life observation / body weight / body weight + systemic / in life observation / body weight / body weight gain + systemic / in…
[25] = systemic / pathology microscopic / testes / adenoma
[26] = group: developmental, systemic / in life observation / body weight / fetal weight
[27] = group: maternal, systemic / in life observation / body weight / body weight gain + systemic / in life observation / mortality / mortality + systemic / organ …
[28] = systemic / in life observation / clinical signs / reduced activity
[29] = systemic / in life observation / clinical signs / reduced activity + systemic / hematology / erythrocyte (rbc) count differential / …

Q: With CC(C)OC(=O)Nc1cccc(Cl)c1 [Chlorpropham] as the molecule, how does the LEL [1, 15] read?
A: The LEL was 1140 mg/kg/day.

Q: What about the LOAEL [1, 15] of the same molecule?
A: The LOAEL was > 1140 mg/kg/day.

Q: And the NEL [1, 15]?
A: The NEL was 279 mg/kg/day.

Q: And the NOAEL [1, 15]?
A: Its NOAEL is ≥ 1140 mg/kg/day.

Q: What about the LOAEL [1, 16] of the same molecule?
A: The LOAEL was 276 mg/kg/day.

Q: And the NOAEL [1, 16]?
A: Its NOAEL is 64.8 mg/kg/day.

Q: What about the LEL [1, 17] of the same molecule?
A: Its LEL is 15.9 mg/kg/day.

Q: And the NEL [1, 17]?
A: The NEL was < 15.9 mg/kg/day.

Q: What about the LEL [2, 18] of the same molecule?
A: Its LEL is 1000 mg/kg/day.

Q: What about the LOAEL [2, 18] of the same molecule?
A: Its LOAEL is 1000 mg/kg/day.

Q: And the NEL [2, 18]?
A: The NEL was 350 mg/kg/day.

Q: What about the NOAEL [2, 18] of the same molecule?
A: Its NOAEL is 350 mg/kg/day.

Q: What about the LOAEL ([2]; group: maternal, systemic / in life observation / body weight / body weight gain) of the same molecule?
A: The LOAEL was 350 mg/kg/day.

Q: What about the NEL [2, 19] of the same molecule?
A: The NEL was 100 mg/kg/day.

Q: And the NOAEL [2, 19]?
A: Its NOAEL is 100 mg/kg/day.

Q: What about the LEL ([2]; group: maternal, systemic / in life observation / body weight / body weight gain + systemic / in life observation / clinical signs / red or crusty deposits …) of the same molecule?
A: The LEL was 350 mg/kg/day.

Q: What about the LEL [3] of the same molecule?
A: Its LEL is 100 mg/kg/day.

Q: What about the LOAEL [3] of the same molecule?
A: Its LOAEL is 100 mg/kg/day.

Q: What about the NEL [3] of the same molecule?
A: The NEL was 30 mg/kg/day.

Q: And the NOAEL [3]?
A: Its NOAEL is 30 mg/kg/day.

Q: And the LEL [4, 20]?
A: The LEL was 150 mg/kg/day.

Q: What about the LOAEL [4, 20] of the same molecule?
A: Its LOAEL is 150 mg/kg/day.

Q: And the NEL [4, 20]?
A: The NEL was 50 mg/kg/day.

Q: What about the NOAEL [4, 20] of the same molecule?
A: Its NOAEL is 50 mg/kg/day.

Q: What about the LEL [4, 21] of the same molecule?
A: The LEL was 150 mg/kg/day.

Q: And the LOAEL [4, 21]?
A: Its LOAEL is 150 mg/kg/day.

Q: And the NEL [4, 21]?
A: The NEL was 50 mg/kg/day.

Q: And the NOAEL [4, 21]?
A: The NOAEL was 50 mg/kg/day.

Q: And the LEL [5]?
A: The LEL was 519 mg/kg/day.

Q: What about the LOAEL [5] of the same molecule?
A: Its LOAEL is 519 mg/kg/day.

Q: And the NEL [5]?
A: The NEL was 108 mg/kg/day.

Q: What about the NOAEL [5] of the same molecule?
A: Its NOAEL is 108 mg/kg/day.

Q: What about the LEL [6, 22] of the same molecule?
A: Its LEL is 2000 mg/kg/day.

Q: What about the LOAEL [6, 22] of the same molecule?
A: Its LOAEL is 2000 mg/kg/day.

Q: What about the NEL [6, 22] of the same molecule?
A: The NEL was 400 mg/kg/day.

Q: And the NOAEL [6, 22]?
A: Its NOAEL is 400 mg/kg/day.

Q: What about the LEL [6, 23] of the same molecule?
A: Its LEL is 400 mg/kg/day.

Q: And the LOAEL [6, 23]?
A: Its LOAEL is 400 mg/kg/day.

Q: And the NEL [6, 23]?
A: The NEL was 40 mg/kg/day.

Q: What about the NOAEL [6, 23] of the same molecule?
A: Its NOAEL is 40 mg/kg/day.

Q: And the LEL [7]?
A: The LEL was 5 mg/kg/day.

Q: And the LOAEL [7]?
A: The LOAEL was 50 mg/kg/day.

Q: And the NEL [7]?
A: Its NEL is < 5 mg/kg/day.

Q: And the NOAEL [7]?
A: The NOAEL was 5 mg/kg/day.

Q: How did the LOAEL [8, 24] turn out when CC(C)O [Isopropanol] was run?
A: The LOAEL was > 5000 ppm.

Q: And the NEL [8, 24]?
A: Its NEL is 500 ppm.

Q: And the NOAEL [8, 24]?
A: The NOAEL was ≥ 5000 ppm.

Q: And the LEL ([8]; systemic / in life observation / clinical signs / ataxia + systemic / in life observation / clinical signs / lethargy + systemic / in life …)?
A: The LEL was 1500 ppm.

Q: And the LEL [9]?
A: Its LEL is 5000 ppm.

Q: And the LOAEL [9]?
A: Its LOAEL is > 10000 ppm.

Q: And the NEL [9]?
A: Its NEL is 1500 ppm.

Q: And the NOAEL [9]?
A: Its NOAEL is ≥ 10000 ppm.

Q: And the LEL [10]?
A: Its LEL is 1200 mg/kg/day.

Q: What about the LOAEL [10] of the same molecule?
A: Its LOAEL is 1200 mg/kg/day.

Q: What about the NEL [10] of the same molecule?
A: The NEL was 700 mg/kg/day.

Q: What about the NOAEL [10] of the same molecule?
A: The NOAEL was 700 mg/kg/day.

Q: What about the LEL [11] of the same molecule?
A: The LEL was 480 mg/kg/day.

Q: And the LOAEL [11]?
A: Its LOAEL is > 480 mg/kg/day.

Q: And the NEL [11]?
A: Its NEL is 240 mg/kg/day.

Q: What about the NOAEL [11] of the same molecule?
A: Its NOAEL is ≥ 480 mg/kg/day.

Q: What about the LOAEL [12, 24] of the same molecule?
A: Its LOAEL is 2500 ppm.

Q: And the NOAEL [12, 24]?
A: The NOAEL was 500 ppm.

Q: What about the LEL [12, 25] of the same molecule?
A: Its LEL is 500 ppm.

Q: What about the NEL [12, 25] of the same molecule?
A: The NEL was < 500 ppm.

Q: And the LEL [13, 26]?
A: Its LEL is 800 mg/kg/day.

Q: What about the LOAEL [13, 26] of the same molecule?
A: Its LOAEL is > 1200 mg/kg/day.

Q: And the NEL [13, 26]?
A: Its NEL is 400 mg/kg/day.

Q: What about the NOAEL [13, 26] of the same molecule?
A: Its NOAEL is ≥ 1200 mg/kg/day.

Q: What about the LOAEL [13, 27] of the same molecule?
A: The LOAEL was > 1200 mg/kg/day.

Q: And the NEL [13, 27]?
A: The NEL was 400 mg/kg/day.

Q: What about the NOAEL [13, 27] of the same molecule?
A: The NOAEL was ≥ 1200 mg/kg/day.

Q: And the LEL ([13]; group: maternal, systemic / in life observation / mortality / mortality)?
A: Its LEL is 800 mg/kg/day.

Q: And the LEL [14, 28]?
A: Its LEL is 500 ppm.

Q: What about the NEL [14, 28] of the same molecule?
A: The NEL was < 500 ppm.

Q: What about the LOAEL [14, 29] of the same molecule?
A: The LOAEL was > 5000 ppm.

Q: What about the NOAEL [14, 29] of the same molecule?
A: The NOAEL was ≥ 5000 ppm.
